The results in this text go back to patent publication US20170196987A1, “METHODS FOR TREATING MULTIPLE SCLEROSIS” (MedWell Laboratories Ltd., priority 2014, published 2017).

Test [1] deals with Experimental Autoimmune Encephalomyelitis (EAE) mice. The experiment in a line: Efficacy of conjugate MW001 in MOG 35-55 induced EAE (model of multiple sclerosis), Example 1. The test is classed as in vivo, female C57B1 mice. The protocol: Disease was induced in female C57B1 mice (6-8 weeks old; Harlan). Myelin Oligodendrocyte Glycoprotein (MOG) 35-55 was dissolved in saline (3 mg/ml) and emulsified (1:1) with Complete Freund's Adjuvant (CFA) (gibco; containing 5 mg of killed mycobacterium tuberculosis (MT). 200 μl of the emulsion (containing […] of MOG) were injected into the right flank of each mouse, wherein and each mouse received a 250 ng supplement of pertussis toxin (PT, List) by intraperitoneal injection. Another 250 ng of PT were injected into the right flank of each mouse 24 hours later. The mice were observed daily from the 9th day post-EAE and the clinical signs were scored as described in Table 1 below:
The MW-001 conjugate was dissolved in ethanol (60 mg/ml) and administered by intraperitoneal injection, at a dose of 50 mg/kg (10% stock in saline) twice a day, once at 9 am and once at […]. Each dose was administered in a volume of 0.2ml/mouse (˜20 g). One group of animals was treated starting at day 0 (relating to the first day on which the induction of the disease started) and the other starting at day 10, when clinical signs first appeared. […]
Calculation of the incidence of disease: The number of sick animals in each group was summed and percentage of sick animals in each group was calculated.
Calculation of the mean maximal score (MMS): The maximal scores of each of the 10 mice in the group was summed and the mean maximal score of each group was calculated as follows:Σmaximal score of each mouse/number of mice in the group.
Calculation of the group mean score (GMS):The scores of each of the 10 mice in the group was summed and the mean score per day calculated. The group mean score was calculated as follows: Σtotal score of each mouse per day/number of mice in the group.
Mean maximal score (MMS): defined as the disease severity; scored on a scale of 0-5 with graduations of 0.5 for intermediate clinical signs. The score is described in table-1

For test [2] the test system is unchanged. As to the kind of experiment: Efficacy of oral and ip MWL-001, MP and their combination in EAE (model of brain inflammation, MS), Example 2. The test is classed as in vivo, female C57Bl mice. Particulars: for Inhibition of the clinical signs of the disease: day 0 to day 15. The protocol:
Induction of EAE: Disease was induced in female C57Bl mice (6-8 weeks old; Harlan). Myelin Oligodendrocyte Glycoprotein (MOG 35-55) (Hadassah ein karem) was dissolved in saline (3 mg/ml) and emulsified (1:1) with Complete Freund's Adjuvant (CFA) (gibco; containing 5 mg of killed MT). 200 microliter of emulsion (containing […] of MOG) was injected into the right flank, and each mouse received a supplement of 250 ng of pertussis toxin (List) i.p. Another 250 ng of pertussis toxin (PT) were injected 24 hours later. Mice were observed daily from the 9th day post-EAE and the clinical signs were scored as described in Table III below.
MWL-001 was dissolved in ethanol (60 mg/ml), wherein in one group MWL-001 was administered ip and in a second group MWL-001 was administered orally by gavage at a dose of 50 mg/kg (10% stock in saline). The MWL-001 was administered once a day (from day 0) at 9 am. Treatment ended on day 15 post inoculation. Each dose was administered in a volume of 0.2 ml/mouse
A third group of animals was treated ip with a dose of 25 mg/kg starting on day 7 and ending on day 15
The number of animals in each of the above five groups was between 9 and 11.
Calculation of the incidence of disease: The number of sick animals in each group was summed and percentage of sick animals in each group calculated.
Calculation of the mean maximal score (MMS): The maximal scores of each of the 10 mice in the group were summed and the mean maximal score of each group was calculated as follows:Σ maximal score of each mouse / number of mice in the group.
Calculation of the group mean score (GMS): The scores of each of the 10 mice in the group was summed and the mean score per day calculated. The group mean score was calculated as follows: Σ total score of each mouse per day/number of mice in the group.

For test [3], the system named is spinal cord of EAE animal. As to the kind of experiment: Histopathology of H&E stained spinal cord sections of EAE animals. The format is in vivo, mice. From the text: FIG. 5 (A, B and C) is a histopathological photograph of a spinal cord section stained with H&E of control untreated EAE animal. P=parenchymal infiltrates, M=meningeal infiltrates and D=diffused infiltrates.
FIG. 6 (A and B) is a histopathological photograph of a spinal cord section stained with H&E of EAE animal treated with MWL-001 (i.p.) on day 0.
FIG. 7 (A and B) is a histopathological photograph of a spinal cord section stained with H&E of EAE animal treated with MWL-001 (i.p.) on day 10.
Histopathological photographs are presented as FIGS. 5, 6 and 7).

[4] abbreviates: MW-001 50 mg/kg ip twice a day, treatment started on day 0, monitored day 0 to day 20.
Setting [5] is: MW-001 50 mg/kg ip twice a day, treatment started on day 10, monitored day 0 to day 20.
Where [6] appears, read: MWL-001 i.p. treatment started at day 10, FIG. 7 A and B.

On to `CC/C=C/C/C=C/C/C=C/C/C=C/C/C=C/C/C=C/CCC(=O)N1CC(O)CC1C(=O)O` (stereo not shown) [MW-001], for which, in test [1] (50 mg/kg ip twice a day, started on day 0 or day 10), the “Effectiveness in preventing and ameliorating EAE (overall, vs untreated group)” value was “highly effective in preventing and ameliorating EAE in mice”. In addition, in test [1] (setting [4]), the “Disease incidence (sick mice/total)” value is “**1/10”, the “Mean day of onset” value turned out to be 15, the “Mean disease duration” value came to 0.6 ± 0.19 days and the Mean maximal score is 0.075 ± 0.02. For the same compound, the “Mean score (whole group)” value in test [1] (setting [4]) is on record as 0.2 ± 0.06. In test [1] (setting [5]), the “Incidence (#dead, including sacrificed)” value is 11/11; the “Mean day of onset” value is given as 11 ± 0.09; the “Mean disease duration” value is 8.90 ± 0.2 days; the Mean maximal score was found to be 2.72 ± 0.14. The “Mean score (whole group)” value in test [1] (setting [5]) is on record as 1.34 ± 0.08. Also, in test [2] (25 mg/kg ip, day 7 to day 15, 5 in the control group, FIG. 3), the “Severity of disease (clinical score)” value is 3. Also, the “Inhibition of appearance of clinical signs” value in test [2] (25 mg/kg ip, day 7 to day 15, FIG. 3) is “did not inhibit their appearance on day 10-11 post inoculation”. Moreover, the “Inhibition of the clinical signs of the disease” value in test [2] (50 mg/kg once a day ip, FIG. 2) was “effective in inhibiting the clinical signs of the disease”. In addition, in test [2] (50 mg/kg once a day orally by gavage, FIG. 2), the “Inhibition of the clinical signs of the disease” value was “effective in inhibiting the clinical signs of the disease”. The “Clinical signs after cessation of the drug” value in test [2] (50 mg/kg once a day orally or ip, a few days after treatment ended on day 15, FIG. 2) is “mild signs of the disease appeared for a short period of time”. For the same compound, the “Mononuclear cell infiltrates in the spinal cord (meningeal)” value in test [3] (MWL-001 i.p. on Day 0, compared to untreated, FIG. 6 A and B) is recorded as “very few meningeal infiltrates”. In test [3] (setting [6]), the “Mononuclear cell infiltrates in the spinal cord (meningeal)” value is given as “very few meningeal infiltrates” and the “Parenchymal or diffused infiltrates in the spinal cord” value was “no parenchymal or diffused infiltrates”.
